{"source": "patent US6077826A", "about": "“Synthetic macromolecular channel assembly for transport of chloride ions through epithelium useful in treating cystic fibrosis” (Kansas State University Research Foundation, priority 1998, dated 2000)", "key": {"tetrameric channel": {"molecular_target": "T1, tetrameric channel (Homo sapiens, UniProt P23415)", "T1 construct": "9-amino acid carrier template (tethers four peptide copies)", "T1 sequence (P23415 278-300 limits assumed)": "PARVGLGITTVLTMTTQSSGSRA", "details": "lipid bilayers; cited from earlier work"}, "[1]": {"tested_on": "C-K4 -M2GlyR-generated (SEQ ID NO: 7) ISC across MDCK monolayers", "test": "Effect of Cl- transport inhibitors on C-K4-M2GlyR-generated Isc across MDCK monolayers", "format": "cell-based, canine", "details": "for fraction of stimulated current remaining: four monolayers", "protocol": "Electrical measurements. MDCK cells (2.5×10^5) were plated on permeable supports (Snapwell, 12 mm dia.; Costar Corp), coated with a mixture of types I and III collagen (ICN, Costa Mesa, Ca.). The Snapwell supports were placed in a 6 well culture plate containing DME/F12+P/S and 1% FCS (0.4 mL in the upper part and 5 mL in the lower). MDCK monolayers were allowed to reach confluency and after 5 days of growth were mounted in Using chambers designed for cell culture (Costar). The position of the monolayer and the supporting membrane separated the apical and the basolateral compartments. Both sides of the monolayers were bathed in 5 mL of a Ringer's solution containing (in mM); 147 Na^+, 119 Cl^-, 20 HCO3^-, 6 alanine, 5 K^+, 5 acetate, 5 glucose, 4 lactate, 2.5 HPO4^- 1.2 Mg^+2, 1.2 SO4^-2 1 citrate, 0.5 butyric acid and 14 raffinose. The media in each half-chamber was circulated by a bubble-lift method with a gas mixture of 95% O2 /5% CO2 and maintained at 37° C. In experiments in which we removed chloride from the Ringer's solution, the molar equivalent of cyclamate was used.\nThe transepithelial voltage was measured using glass capillary tubes containing a plug of 5% agar in 3 M KCl and situated near each side of the cell layer. The glass tube was filled above the agar plug with 3 M KCl and Ag/AgCl electrodes were inserted into the KCI. Current electrodes consisted of a coil of platinum wire (30 gauge) located at the ends of each half-chamber. Transepithelial potential (Vtc); the short-circuitcurrent (Isc), the current necessary to clamp the voltage to zero; and the transepithelial resistance (Ftc) were measured at five minute intervals with a dual epithelial voltage clamp apparatus (Warner Instrument, Hamden, Conn.) as previously described in detail (Mangoo-Karimet al.; 1995). The average of the last two measurements in each period were used for comparison between pairs of monolayers and among each group.\nIn electrophysiological studies, niflumic acid, 5-nitro-2-(3-phenylpropylamino)-benzoate (NPPB, provided by SmithKline Beecham), diphenylamine-2-carboxylate (DPC, Fluka Chemika), and glibenclamide were dissolved in 100% ethanol. The maximal final concentration of ethanol, 0.5%, was without effect on Isc.\nEffect of Cl^- channel blockers. We tested a variety of Cl^- channel blockers on the Isc generated by apical application of C-K4 -M2GlyR (SEQ ID NO: 7). […]. […] A negative change indicates a reduction in the current. The sensitivity sequence of the peptide-induced current to the Cl^- channel blockers was niflumic acid≥NPPB>DPC>glibenclamide>>>DIDS."}, "[2]": {"tested_on": "forskolin-stimulated current", "details": "apical DPC, previously published dose response; cited from earlier work"}, "M2GlyR-stimulated Isc": {"tested_on": "M2GlyR-stimulated Isc", "test": "Effect of Cl- transport inhibitors on M2GlyR-stimulated Isc in MDCK monolayers", "format": "cell-based, canine"}, "MDCK monolayers [3]": {"tested_on": "MDCK monolayers", "test": "Intracellular cAMP by radioimmunoassay in MDCK monolayers", "format": "cell-based, canine", "details": "10 μM forskolin, 2 hrs", "protocol": "Cyclic adenosine monophosphate measurements. Confluent monolayers of MDCK cells were incubated in defined media (1.7 mL apical and 2.5 mL basolateral) or defined media containing either 10 μM basolateral forskolin or 500 μM apical C-K4 -[…] (SEQ ID NO: 7) for two hours. Monolayers were rinsed in Ca^+2 -, Mg^+2 -tree phosphate buffered saline (PBS), then treated with 5% trichloroacetic acid (TCA) to deactivate endogenous phosphodiesterases. […] Intracellular cAMP remained in the aqueous phase. After the water and ether phases separated, the water phase was collected. Relative levels of intracellular cAMP were determined by radioimmunoassay (Biomedical Technology Inc, Stoughton, Mass.) using methods previously described (Krishna and Terranova; 1987)."}, "MDCK monolayers [4]": {"tested_on": "MDCK monolayers", "test": "Fluid secretion / fluid transport by MDCK monolayers (24 hr collection)", "details": "500 μM apical peptide or 10 μM basolateral forskolin, n = 12 (Table 6)"}, "[5]": {"details": "100 μM inhibitor apical for 20 minutes after 100 μM C-K4-M2GlyR, negative = inhibition"}, "[6]": {"details": "100 μM basolateral bumetanide after 100 μM apical SEQ ID NO: 7, n = 8"}, "[7]": {"details": "100 μM basolateral bumetanide after 100 μM apical SEQ ID NO: 7, n = 8, listed as bumetanide"}}, "data": [{"smiles": "Cc1cccc(C)c1NC(=O)C[N+](C)(C)C", "note": "[QX-222]", "values": [{"measurement": "block of the tetrameric channel", "setting": "tetrameric channel", "result": "not blocked"}]}, {"smiles": "O=C(O)c1cc([N+](=O)[O-])ccc1NCCCc1ccccc1", "note": "[NPPB, 5-nitro-2-(3-phenylpropylamino)-benzoate]", "values": [{"measurement": "100 μM inhibitor (percent change) in ISC", "setting": "[1]; [5]", "result": "-55.2 ± 4.5", "unit": "%"}]}, {"smiles": "O=C(O)c1c2ccccc2cc2ccccc12", "note": "[9-AC, 9-anthracene carboxylic acid]", "values": [{"measurement": "block of the tetrameric channel", "setting": "tetrameric channel", "result": "blocked"}]}, {"smiles": "O=C(O)c1cccnc1Nc1cccc(C(F)(F)F)c1", "note": "[Niflumic acid, niflumic acid]", "values": [{"measurement": "block of the tetrameric channel", "setting": "tetrameric channel", "result": "blocked"}, {"measurement": "inhibition at 100 µM", "setting": "[1]; Canis lupus familiaris, MDCK, 20 min, heading: 100 inhibitor in ISC, 100 μM inhibitor apical for 20 minutes after 100 μM C-K4-M2GlyR, negative = inhibition, read-out: 100 μM inhibitor (percent change) in ISC", "result": "57.1 ± 3.8", "unit": "%"}]}, {"smiles": "O=C(O)c1ccccc1Nc1ccccc1", "note": "[DPC, diphenylamine-2-carboxylate]", "values": [{"measurement": "fraction of stimulated current remaining", "setting": "[1]; 100 μM apical DPC", "result": "68±2", "unit": "%"}, {"measurement": "100 μM inhibitor (percent change) in ISC", "setting": "[1]; [5]", "result": "-38.0 ± 0.8", "unit": "%"}, {"measurement": "fraction of stimulated current remaining", "setting": "[1]; 1 mM apical DPC", "result": "41±6", "unit": "%"}, {"measurement": "fraction of stimulated current remaining", "setting": "[1]; 3 mM apical DPC", "result": "26±5", "unit": "%"}, {"measurement": "dose of DPC required to significantly inhibit the forskolin-stimulated current", "setting": "[2]", "result": 3, "unit": "mM"}, {"measurement": "DPC concentration sufficient to return Isc to the control level", "setting": "M2GlyR-stimulated Isc; apical DPC after M2GlyR, four experiments", "result": "< 1", "unit": "mM"}]}, {"smiles": "C=C[C@@]1(C)CC(=O)[C@]2(O)[C@@]3(C)[C@@H](O)CCC(C)(C)[C@@H]3[C@H](O)[C@H](OC(C)=O)[C@@]2(C)O1", "note": "[forskolin]", "values": [{"measurement": "increase of cAMP levels above the control", "setting": "MDCK monolayers [3]", "result": 266, "unit": "%"}, {"measurement": "fluid transport by MDCK monolayers", "setting": "MDCK monolayers [4]", "result": "0.47 ± 0.05", "unit": "μL/hr/cm^2"}]}, {"smiles": "CCCCNc1cc(C(=O)O)cc(S(N)(=O)=O)c1Oc1ccccc1", "note": "[Bumetanide, bumetanide]", "values": [{"measurement": "ISC after bumetanide", "setting": "[1]; [6]", "result": "1.4 ± 0.4", "unit": "μA/cm^2"}, {"measurement": "Rtc after bumetanide", "setting": "[1]; [6]", "result": "2145 ± 474", "unit": "Ohms.cm^2"}, {"measurement": "Vtc after bumetanide", "setting": "[1]; [6]", "result": "-2.8±0.6", "unit": "mV"}, {"measurement": "ISC after bumetanide", "setting": "[1]; [7]", "result": 1.4, "unit": "μA/cm^2"}, {"measurement": "Rtc after bumetanide", "setting": "[1]; [7]", "result": "not significant"}, {"measurement": "inhibition of the peptide-generated Isc", "setting": "[1]; 100 μM basolateral bumetanide, n = 8", "result": 97, "unit": "%"}, {"measurement": "effect on the peptide-generated current", "setting": "[1]; 100 μM basolateral bumetanide, typical experiment FIG. 6", "result": "blocked the peptide-generated current"}, {"measurement": "Isc after subsequent addition of bumetanide", "setting": "M2GlyR-stimulated Isc; 100 μM basolateral bumetanide after M2GlyR, five experiments", "result": "1.3±0.3", "unit": "μA/cm^2"}]}, {"smiles": "O=C1C[C@@H]2OCC=C3CN4CC[C@]56c7ccccc7N1[C@H]5[C@H]2[C@H]3C[C@H]46", "note": "[Strychnine]", "values": [{"measurement": "block of the tetrameric channel", "setting": "tetrameric channel", "result": "does not block"}]}, {"smiles": "COc1ccc(Cl)cc1C(=O)NCCc1ccc(S(=O)(=O)NC(=O)NC2CCCCC2)cc1", "note": "[Glibenclamide, glibenclamide]", "values": [{"measurement": "percent change in Isc at 100 µM", "setting": "[1]; Canis lupus familiaris, MDCK, 20 min, 100 μM inhibitor apical for 20 minutes after 100 μM C-K4-M2GlyR, negative = inhibition", "result": "-18 ± 3.1", "unit": "%"}]}]}
